# Patent publication EP1134289A1, “METHOD FOR SCREENING CD14 AGONIST OR ANTAGONIST” (Takeda Chemical Industries, Ltd., priority 1998, dated 2000)
# Tested on: CD14 expression
# Test: Induction of CD14 expression in THP-1 cells (FITC-labeled anti-CD14 antibody, flow cytometry)
# Type: cell-based, human
# Details: VD3 about 100 nM, 3 days, 10,000 cells, 40 where no VD3 was added
# Protocol: Human monocytic THP-1 cells (purchased from Dainippon Pharmaceutical Co., Ltd.) were used as cells. As a culture medium, RPMI medium 1640 with L-glutamine (RPMI; GIBCO Co.), to which inactivated fetal calf serum (GIBCO Co.) at a concentration of 10% (v/v) and penicillin-streptomycin involving penicillin G sodium and streptomycin sulfate at a concentration of 100 U/ml and 100 µg/ml respectively, were added. For induction of CD14 expression, the cells were suspended in the medium at a content of about 3 × 10^5 cells/ml, to which 1,25-dihydroxyvitamin D3 (VD3; Roussel-UCLAF S.A.) was added at a final concentration of about 100 nM. The cells were incubated in the presence of 5% CO2 in a CO2 incubator MODEL 6200-03 (National Appliance Company) at 37°C for 3 days. The cultured cells were suspended into PBS at 10^6 cells/ml, to which FITC-labeled anti-human CD14 monoclonal antibody clone. UCHM1 (Ancell Co.) was added at a concentration of 1.6 µg/ml. The mixture was incubated at 4°C for 1 hour. The cells were washed 3 times with PBS by centrifugation (1,000 rpm, 3 minutes, 20°C), suspended into 1,000 µl of PBS, and filtered through a tube with a filter (FALCON2235 (Becton Dickinson Co.)). For the resulting cell suspension, the amount of the FITC-labeled anti-CD14 antibody bound to 10,000 cells was determined using a flow cytometer Cyto ACE-300 (JASCO Coporation). […]
structure (smiles),measurement,value
"C=C1/C(=C\C=C2/CCC[C@]3(C)[C@@H]([C@H](C)CCCC(C)(C)O)CC[C@@H]23)C[C@@H](O)C[C@@H]1O [VD3, 1,25-dihydroxyvitamin D3]",mean fluorescence intensity (MFI) of bound FITC-labeled anti-CD14 antibody,114.9
